We go through 9 molecules from ChEMBL document CHEMBL1148877, “Evaluation of 4'-substituted bicyclic pyridones as non-steroidal inhibitors of steroid 5alpha-reductase” (Bioorg Med Chem Lett, 2007).

SMILES strings stand for the structures.

In experiment [1] the target is T1, 3-oxo-5-alpha-steroid 4-dehydrogenase 1 (Homo sapiens) (UniProt P18405).
T1 sequence (whole entry): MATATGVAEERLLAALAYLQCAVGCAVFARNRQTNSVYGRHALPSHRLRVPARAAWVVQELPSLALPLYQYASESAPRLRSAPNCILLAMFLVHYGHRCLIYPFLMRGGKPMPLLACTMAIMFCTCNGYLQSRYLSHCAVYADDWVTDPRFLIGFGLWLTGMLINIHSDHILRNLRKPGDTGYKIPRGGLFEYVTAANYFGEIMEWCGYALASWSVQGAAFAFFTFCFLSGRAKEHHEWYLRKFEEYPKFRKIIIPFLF
In words: Inhibition of steroid 5-alpha reductase type 1 expressed in HEK 293 cells at 10 uM. Format: cell-based. The note with it: HEK293.

Experiment [2] addresses T2, 3-oxo-5-alpha-steroid 4-dehydrogenase 2 (Homo sapiens, UniProt P31213).
T2 sequence (P31213 whole entry): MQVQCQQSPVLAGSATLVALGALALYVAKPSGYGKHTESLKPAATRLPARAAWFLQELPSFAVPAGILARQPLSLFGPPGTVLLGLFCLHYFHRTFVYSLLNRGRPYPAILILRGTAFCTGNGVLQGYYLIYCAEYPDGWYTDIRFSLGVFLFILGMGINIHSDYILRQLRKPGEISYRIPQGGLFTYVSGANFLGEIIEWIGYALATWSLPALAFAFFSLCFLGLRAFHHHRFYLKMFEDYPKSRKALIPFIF
The experiment can be described thus: Inhibition of steroid 5-alpha reductase type 2 expressed in HEK 293 cells. Format: cell-based, HEK293.

Experiment [3] has as its target T3, 3-oxo-5-alpha-steroid 4-dehydrogenase 1 (Homo sapiens, UniProt P18405).
T3 sequence (P18405 whole entry): T1 sequence (whole entry)
In words: Inhibition of steroid 5-alpha reductase type 1 expressed in HEK 293 cells. In kind it is cell-based, HEK293.

Experiment [4] has as its target T4, 3-oxo-5-alpha-steroid 4-dehydrogenase 2 (Homo sapiens) (UniProt P31213).
T4 sequence (whole entry): T2 sequence (P31213 whole entry)
The experiment can be described thus: Inhibition of steroid 5-alpha reductase type 2 expressed in HEK 293 cells at 10 uM. In kind it is cell-based. To be noted: HEK293.

One may read the inhibition as the relative decrease from the control value, in per cent. Low readings indicate a weak effect, high ones a strong effect. For `CC1CC(=O)C=CN1c1ccc(OCC(=O)N(C(C)C)C(C)C)cc1` (stereo unspecified), in experiment [1], the inhibition turned out to be 3%.

Molecule `Cn1cc(-c2ccc(C(=O)Cc3ccccc3)cc2)ccc1=O` gave an inhibition in experiment [1] of 61%.

`CC(=O)SCCCCCCCCCCCCCCCC(=O)NCCOC(=O)CC/C=C/CNC(=O)COc1ccc(-c2ccc(=O)n(C)c2)cc1` showed an inhibition in experiment [1] of 43%.

Take `CC(=O)SCCCCCCCCCCCCCCCC(=O)NCCOCCOC(=O)CC/C=C/CNC(=O)COc1ccc(-c2ccc(=O)n(C)c2)cc1`: the inhibition in experiment [1] came to 33%.

`CC(C)N(C(=O)COc1ccc(C2CCC(=O)N(C)C2)cc1)C(C)C` (stereo unspecified) yielded an inhibition in experiment [1] of 6%.

For orientation: IC50 means the concentration that inhibits the measured activity by half. Low readings indicate greater potency in that assay, high ones weaker potency in that assay. On to `CC(C)(C)NC(=O)[C@H]1CC[C@H]2[C@@H]3CC[C@H]4NC(=O)C=C[C@]4(C)[C@H]3CC[C@]12C` [FINASTERIDE], for which the IC50 is 25 nM in experiment [2] and 453 nM in experiment [3].

With `C=CCNC(=O)COc1ccc(N2C=CC(=O)CC2C)cc1` (stereo unspecified), the results for the inhibition in experiment [4] and in experiment [1] were 12% and 8%, respectively.

In experiment [1], `C=CCNC(=O)COc1ccc(-c2ccc(=O)n(C)c2)cc1` returned an inhibition of 6%.

Regarding `CC(C)NC(=O)COc1ccc(-c2ccc(=O)n(C)c2)cc1`, the inhibition in experiment [1] amounted to 8%.
